Source: patent USRE37781E1, “Substituted cyclic carbonyls and derivatives thereof useful as retroviral protease inhibitors” (DuPont Pharmaceuticals Company, priority 1991, dated 2002)
Like-named read-outs stand apart in the source and are kept apart here.

Tests used:
[1] = system: HIV-1 (RF) in MT-2 cells; assay: microbe, parasite or virus in culture; assay type: cell-based
In short: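 HIV-1 laboratory strains (RF, MN, IIIB) grown in H9 cells in RPMI 1640 with 5% FCS; infections in MT-2 cells. Viral RNA quantified by hybridization with biotinylated gag/pol capture probes on streptavidin plates and alkaline phosphatase-conjugated reporter probes; BH10 gag-pol in vitro transcripts serve as RNA standards.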

[2] = molecular target: single-chain tethered dimer of HIV protease (Human immunodeficiency virus 1, UniProt P04585); assay: biochemical; assay type: biochemical; parameters: fused on or other part: A second copy of the same protease unit is joined to the first by a short peptide tether, giving one polypeptide
[3] = Table 2u (second printing), HPLC method, read-out: K1 (HPLC)
[4] = Table 2u, HPLC method, read-out: K1 (HPLC)
[5] = Human immunodeficiency virus 1, MT2, Table 1e, read-out: IC90
[6] = read-out: Ki (HPLC), Table 1e, cells marked (HPLC)
[7] = Human immunodeficiency virus 1, MT2, 48 h, Table 2d, class symbols, read-out: IC90
[8] = read-out: HPLC K1, Table 2d, class symbols
[9] = Table 2d, class symbols, read-out: HPLC K1

## CC(=NO)c1cccc(CN2C(Cc3ccccc3)C(O)C(O)C(Cc3ccccc3)N(Cc3cccc(C(C)=NO)c3)S2(=O)=O)c1 (centres unmarked) [23U]
[1]; Table 2m
  IC90: +++ (+++=<10 μg/mL)
[2]; Table 2m, read-out: HPLC Ki
  Ki: < 10 nM

## CN1C(Cc2ccccc2)C(O)C(O)C(Cc2ccccc2)N(C)S1(=O)=O (centres unmarked) [23V]
[1]; Table 2m
  IC90: ++/+ (The ++/+ is used in the cases where an IC90 was determined to be >50 μg/mL)
[2]; Table 2m, read-out: HPLC Ki
  Ki: > 1000 nM

## CCN1C(Cc2ccccc2)C(O)C(O)C(Cc2ccccc2)N(CC)S1(=O)=O (centres unmarked) [23W]
[1]; Table 2m
  IC90: ++ (++=10 to 100 μg/mL)
[2]; Table 2m, read-out: HPLC Ki
  Ki: 10 to 1000 nM

## CCCN1C(Cc2ccccc2)C(O)C(O)C(Cc2ccccc2)N(CCC)S1(=O)=O (centres unmarked) [23X]
[1]; Table 2m
  IC90: +++ (+++=<10 μg/mL)
[2]; Table 2m, read-out: HPLC Ki
  Ki: < 10 nM

## N#Cc1cccc(CN2C(Cc3ccccc3)C(O)C(O)C(Cc3ccccc3)N(Cc3cccc(C#N)c3)S2(=O)=O)c1 (centres unmarked) [23Y]
[1]; Table 2m
  IC90: +++ (+++=<10 μg/mL)
[2]; Table 2m, read-out: HPLC Ki
  Ki: 10 to 1000 nM

## O=P1(Oc2ccccc2)N[C@H](Cc2ccccc2)[C@H](O)[C@@H](O)[C@@H](Cc2ccccc2)N1 (some centres unmarked) [28A]
[1]; Table 2r
  IC90: ++ (++=10 to 100 μg/mL)
[2]; Table 2r, read-out: Ki HPLC
  Ki: > 1000 nM

## O=P1(Oc2ccccc2)N(CC2CC2)[C@H](Cc2ccccc2)[C@H](O)[C@@H](O)[C@@H](Cc2ccccc2)N1CC1CC1 (some centres unmarked) [28C]
[1]; Table 2r
  IC90: +++ (+++=<10 μg/mL)
[2]; Table 2r, read-out: Ki HPLC
  Ki: 10 to 1000 nM

## O=P1(Oc2ccccc2)N(Cc2ccc(CO)cc2)[C@H](Cc2ccccc2)[C@H](O)[C@@H](O)[C@@H](Cc2ccccc2)N1Cc1ccc(CO)cc1 (some centres unmarked) [28E]
[1]; Table 2r
  IC90: +++ (+++=<10 μg/mL)
[2]; Table 2r, read-out: Ki HPLC
  Ki: 10 to 1000 nM

## CCOP1(=O)N[C@H](Cc2ccccc2)[C@H](O)[C@@H](O)[C@@H](Cc2ccccc2)N1 (some centres unmarked) [28F]
[1]; Table 2r
  IC90: ++/+ (The ++/+ is used in the cases where an IC90 was determined to be >50 μg/mL)
[2]; Table 2r, read-out: Ki HPLC
  Ki: > 1000 nM

## CN(C)P1(=O)N(CC2CC2)[C@H](Cc2ccccc2)[C@H](O)[C@@H](O)[C@@H](Cc2ccccc2)N1CC1CC1 (some centres unmarked) [28G]
[1]; Table 2r
  IC90: ++ (++=10 to 100 μg/mL)
[2]; Table 2r, read-out: Ki HPLC
  Ki: > 1000 nM

## COP1(=O)N(Cc2ccc(CO)cc2)[C@H](Cc2ccccc2)[C@H](O)[C@@H](O)[C@@H](Cc2ccccc2)N1Cc1ccc(CO)cc1 (some centres unmarked) [28H]
[1]; Table 2r
  IC90: ++ (++=10 to 100 μg/mL)
[2]; Table 2r, read-out: Ki HPLC
  Ki: 10 to 1000 nM

## CN(C)P1(=O)N(Cc2ccc(CO)cc2)[C@H](Cc2ccccc2)[C@H](O)[C@@H](O)[C@@H](Cc2ccccc2)N1Cc1ccc(CO)cc1 (some centres unmarked) [28I]
[1]; Table 2r
  IC90: ++ (++=10 to 100 μg/mL)
[2]; Table 2r, read-out: Ki HPLC
  Ki: 10 to 1000 nM

## O=P1(Oc2ccccc2)N(Cc2cccc(CO)c2)[C@H](Cc2ccccc2)[C@H](O)[C@@H](O)[C@@H](Cc2ccccc2)N1Cc1cccc(CO)c1 (some centres unmarked) [28J]
[1]; Table 2r
  IC90: ++ (++=10 to 100 μg/mL)
[2]; Table 2r, read-out: Ki HPLC
  Ki: 10 to 1000 nM

## CNc1cccc(CN2[C@H](Cc3ccccc3)[C@H](O)[C@@H](O)[C@@H](Cc3ccccc3)N(Cc3cccc(NC)c3)P2(=O)Oc2ccccc2)c1 (some centres unmarked) [28L]
[1]; Table 2r
  IC90: ++ (++=10 to 100 μg/mL)
[2]; Table 2r, read-out: Ki HPLC
  Ki: 10 to 1000 nM

## Cl.O=C(OCc1ccc(CN2C(=O)N(Cc3ccc(COC(=O)c4cccc(CN5CCOCC5)c4)cc3)[C@H](Cc3ccccc3)[C@H](O)[C@@H](O)[C@H]2Cc2ccccc2)cc1)c1cccc(CN2CCOCC2)c1 [29S]
[1]; Table 2s
  IC90: +++ (+++=<10 μg/mL)
[2]; Table 2s, read-out: Ki (HPLC)
  Ki: > 1000 nM

## Cl.O=C(OCc1ccc(CN2C(=O)N(Cc3ccc(COC(=O)c4ccc(CN5CCOCC5)cc4)cc3)[C@H](Cc3ccccc3)[C@H](O)[C@@H](O)[C@H]2Cc2ccccc2)cc1)c1ccc(CN2CCOCC2)cc1 [29T]
[1]; Table 2s
  IC90: +++ (+++=<10 μg/mL)
[2]; Table 2s, read-out: Ki (HPLC)
  Ki: > 1000 nM

## CCNCc1cccc(C(=O)OCc2ccc(CN3C(=O)N(Cc4ccc(COC(=O)c5cccc(CNCC)c5)cc4)[C@H](Cc4ccccc4)[C@H](O)[C@@H](O)[C@H]3Cc3ccccc3)cc2)c1.Cl [29U]
[1]; Table 2s
  IC90: +++ (+++=<10 μg/mL)
[2]; Table 2s, read-out: Ki (HPLC)
  Ki: > 1000 nM

## CCNCc1ccc(C(=O)OCc2ccc(CN3C(=O)N(Cc4ccc(COC(=O)c5ccc(CNCC)cc5)cc4)[C@H](Cc4ccccc4)[C@H](O)[C@@H](O)[C@H]3Cc3ccccc3)cc2)cc1.Cl [29V]
[1]; Table 2s
  IC90: +++ (+++=<10 μg/mL)
[2]; Table 2s, read-out: Ki (HPLC)
  Ki: > 1000 nM

## Cl.O=C(OCc1ccc(CN2C(=O)N(Cc3ccc(COC(=O)c4ccc(CNCCO)cc4)cc3)[C@H](Cc3ccccc3)[C@H](O)[C@@H](O)[C@H]2Cc2ccccc2)cc1)c1ccc(CNCCO)cc1 [29W]
[1]; Table 2s
  IC90: +++ (+++=<10 μg/mL)
[2]; Table 2s, read-out: Ki (HPLC)
  Ki: 10 to 1000 nM

## CN1CCN(Cc2cccc(C(=O)OCc3ccc(CN4C(=O)N(Cc5ccc(COC(=O)c6cccc(CN7CCN(C)CC7)c6)cc5)[C@H](Cc5ccccc5)[C@H](O)[C@@H](O)[C@H]4Cc4ccccc4)cc3)c2)CC1.Cl.Cl [29Y]
[1]; Table 2s
  IC90: +++ (+++=<10 μg/mL)
[2]; Table 2s, read-out: Ki (HPLC)
  Ki: 10 to 1000 nM

## COC(=O)c1cccc(CN2C(Cc3ccc(F)cc3)C(O)C(O)C(Cc3ccc(F)cc3)N(Cc3cccc(C(=O)OC)c3)S2(=O)=O)c1 (centres unmarked) [31A]
[1]; Table 2u
  IC90: +++ (+++=<10 μg/mL)
[1]; Table 2u (second printing)
  IC90: +++ (+++=<10 μg/mL)
[2]; [3]
  Ki: 10 to 1000 nM
[2]; [4]
  Ki: 10 to 1000 nM

## COC(=O)c1ccc(CN2C(Cc3ccc(F)cc3)C(O)C(O)C(Cc3ccc(F)cc3)N(Cc3ccc(C(=O)OC)cc3)S2(=O)=O)cc1 (centres unmarked) [31B]
[1]; Table 2u
  IC90: +++ (+++=<10 μg/mL)
[1]; Table 2u (second printing)
  IC90: +++ (+++=<10 μg/mL)
[2]; [3]
  Ki: 10 to 1000 nM
[2]; [4]
  Ki: 10 to 1000 nM

## O=S1(=O)N(Cc2cccc(CO)c2)C(Cc2ccc(F)cc2)C(O)C(O)C(Cc2ccc(F)cc2)N1Cc1cccc(CO)c1 (centres unmarked) [31C]
[1]; Table 2u
  IC90: +++ (+++=<10 μg/mL)
[1]; Table 2u (second printing)
  IC90: +++ (+++=<10 μg/mL)
[2]; [3]
  Ki: < 10 nM
[2]; [4]
  Ki: < 10 nM

## O=S1(=O)N(Cc2ccc(CO)cc2)C(Cc2ccc(F)cc2)C(O)C(O)C(Cc2ccc(F)cc2)N1Cc1ccc(CO)cc1 (centres unmarked) [31D]
[1]; Table 2u
  IC90: +++ (+++=<10 μg/mL)
[1]; Table 2u (second printing)
  IC90: +++ (+++=<10 μg/mL)
[2]; [3]
  Ki: < 10 nM
[2]; [4]
  Ki: < 10 nM

## O=S1(=O)N(Cc2ccccc2)C(Cc2ccccc2)C2OC2C(Cc2ccccc2)N1Cc1ccccc1 (centres unmarked) [31F]
[1]; Table 2u
  IC90: ++/+ (The ++/+ is used in the cases where an IC90 was determined to be >50 μg/mL)
[1]; Table 2u (second printing)
  IC90: ++/+ (The ++/+ is used in the cases where an IC90 was determined to be >50 μg/mL)
[2]; [3]
  Ki: > 1000 nM
[2]; [4]
  Ki: > 1000 nM

## O=C1N(Cc2ccccc2)[C@H](Cc2ccccc2)C[C@@H](O)[C@@H](Cc2ccccc2)N1Cc1ccccc1 [Example 7AN]
[1]; Table 1d, lower part
  Mass Spec M + H (class symbols printed in this column): +++ (+++=<10 μg/mL)
[2]; read-out: HPLC Ki, Table 1d, lower part
  Ki: < 10 nM

## O=C1N(CC2CC2)C(CCc2ccccc2)[C@@H](O)[C@@H](Cc2ccccc2)N1CC1CC1 (some centres unmarked) [Example 8H]
[1]; [5]
  IC90: < 10 µg/mL
[2]; [6]
  Ki: < 10 nM

## O=C1N(Cc2cccc(O)c2)C(CCc2ccccc2)[C@@H](O)[C@@H](Cc2ccccc2)N1Cc1cccc(O)c1 (some centres unmarked) [Example 8I]
[1]; [5]
  IC90: < 10 µg/mL
[2]; [6]
  Ki: < 10 nM

## O=C1N(CC2CC2)C(C(F)Cc2ccccc2)C[C@@H](Cc2ccccc2)N1CC1CC1 (some centres unmarked) [Example 8N]
[1]; [5]
  IC90: < 10 µg/mL
[2]; [6]
  Ki: > 1000 nM

## O=C1N(Cc2cccc(CNO)c2)C(Cc2ccccc2)C(O)C(O)C(Cc2ccccc2)N1Cc1cccc(CNO)c1 (centres unmarked) [Example 9B]
[1]; [7]
  IC90: < 10 µg/mL
[2]; [8]
  Ki: 10 to 1000 nM

## O=C1N(Cc2cccc(CNOCc3ccccc3)c2)C(Cc2ccccc2)C(O)C(O)C(Cc2ccccc2)N1Cc1cccc(CNOCc2ccccc2)c1 (centres unmarked) [Example 9F]
[1]; Table 2d, class symbols
  IC90: + (+=>100 μg/mL)
[2]; [9]
  Ki: 10 to 1000 nM

## CC(O)c1cccc(CN2C(=O)N(Cc3cccc(C(C)O)c3)C(Cc3ccccc3)C(O)C(O)C2Cc2ccccc2)c1 (centres unmarked) [Example 9H]
[1]; [7]
  IC90: < 10 µg/mL
[2]; [8]
  Ki: 10 to 1000 nM

## O=C1N(Cc2cccc(C=NCCO)c2)C(Cc2ccccc2)C(O)C(O)C(Cc2ccccc2)N1Cc1cccc(C=NCCO)c1 (centres unmarked) [Example 9J]
[1]; [7]
  IC90: < 10 µg/mL
[2]; [8]
  Ki: 10 to 1000 nM

## O=C1N(Cc2cccc(C=NCCO)c2)C(Cc2ccccc2)C(O)C(O)C(Cc2ccccc2)N1Cc1cccc(C2NCCO2)c1 (centres unmarked) [Example 9K]
[1]; Table 2d, class symbols
  IC90: +++ (+++=<10 μg/mL)
[2]; [9]
  Ki: 10 to 1000 nM

## O=C1N(Cc2cccc(Br)c2)C(Cc2ccccc2)C(O)C(O)C(Cc2ccccc2)N1Cc1cccc(C#CCO)c1 (centres unmarked) [Example 9N]
[1]; [7]
  IC90: < 10 µg/mL
[2]; [8]
  Ki: 10 to 1000 nM

## CC(O)c1cccc(CN2C(=O)N(Cc3cccc(Br)c3)C(Cc3ccccc3)C(O)C(O)C2Cc2ccccc2)c1 (centres unmarked) [Example 9R]
[1]; [7]
  IC90: < 10 µg/mL
[2]; [8]
  Ki: 10 to 1000 nM

## O=Cc1cc(CN2C(=O)N(Cc3ccc(O)cc3)C(Cc3ccccc3)C(O)C(O)C2Cc2ccccc2)ccc1O (centres unmarked) [Example 11E]
[1]; [7]
  IC90: < 10 µg/mL
[2]; [8]
  Ki: < 10 nM

## NCCCCCCN1C(=O)N(CCCCCCN)C(Cc2ccccc2)C(O)C(O)C1Cc1ccccc1 (centres unmarked) [Example 12A]
[1]; [7]
  IC90: > 100 µg/mL
[2]; [8]
  Ki: > 1000 nM
